{"source": "patent US10077248B2", "about": "“Form of imazapyr, a process for its preparation and use the same” (priority 2015, dated 2018)", "format": "physicochemical", "experimental": "Samples prepared in Examples 4, and 5 were stored at 54° C. for 1 month, 3 months and 6 months. The procedures are followed according to CIPAC MT 46.3. The concentration of imazapyr was tested at the end of each storage time by high pressure liquid chromatography (HPLC). The aggregation was measured by observation. The original concentration of imazapyr in each formulation was 25%.", "data": [{"smiles": "CC(C)C1(C)N=C(c2ncccc2C(=O)O)NC1=O", "note": "(racemic) [imazapyr in amorphous state, 2-[(RS)-4-isopropyl-4-methyl-5-oxo-2-imidazolin-2-yl]nicotinic acid]", "values": [{"measurement": "storage stability / tendency of aggregation (in words)", "value": "high tendency of aggregation after a long storage time"}]}, {"smiles": "CC(C)C1(C)N=C(c2ncccc2C(=O)O)NC1=O", "note": "(racemic) [crystalline modification I of imazapyr, 2-[(RS)-4-isopropyl-4-methyl-5-oxo-2-imidazolin-2-yl]nicotinic acid]", "values": [{"measurement": "storage stability / tendency of aggregation (in words)", "value": "significant increase in its storage stability"}]}]}
